Test system: 857933-349-R-J2-PDC complex spheroid viability
Assay: Anticancer human tumor 857933-349-R-J2-PDC patient-derived colon adenocarcinoma cell line growth inhibition [POLQ]
Conditions: for IC50: curve of first compound; for viability, T/C: stronger effect = lower value; active means viability on the fitted dose curve at most 10% of control; inactive means the rest
Protocol: Multicellular complex tumor spheroid response to Polymerase (POL) inhibitors (novobiocin, ART-558, RP6685) in combination with a variety of drugs and investigational agents in selected tumor cell lines
The POL inhibitors (novobiocin, ART-558, and RP6685) were evaluated both individually and in combination with standard of care and investigational anticancer small molecules within a complex spheroid model of solid tumors. . Complex spheroids include a stromal component modeled by human endothelial cells (HUVEC) and fibroblasts modeled by human mesenchymal stem cells (MSCs). The concentration ranges selected for each drug and investigational agent were based upon clinically achievable concentrations if the clinical Cmax of the agent was known.
Compounds. The drugs and investigational agents: novobiocin (NSC847541), ART-558 (NSC835418), RP-6685 (NSC848927), peposertib (NSC802822), ceralasertib (NSC780249), elimusertib (NSC800525), camonsertib (NSC841442), AZD-1390 (NSC803789), olaparib (NSC753686), talazoparib (NSC767125), rucaparib (NSC756644), sotorasib (NSC818433), MRTX-1133 (NSC836407), SN-38 (NSC673596), topotecan (NSC609699), epotoside (NSC141540), doxorubicin (NSC123127), gemcitabine (NSC613327), 5-fluorouracil (NSC19893), paclitaxel (NSC125973), vemurafenib (NSC761431), MSA-2 (NSC828583), SN-011 (NSC837082), adavosertib (NSC754352), prexasertib (NSC758257), carboplatin (NSC241240) and oxaliplatin (NSC266046), were obtained from the National Cancer Institute (NCI) Developmental Therapeutics Program Chemical Repository (21). The FDA-approved anticancer drug set is available from the Developmental Therapeutics Program at https://dtp.cancer.gov/organization/dscb/obtaining/. […] The stock solutions were prepared in dimethyl sulfoxide (DMSO, Sigma-Aldrich, St. Louis, MO, cat. D2650), except for the platinum compounds which were prepared in saline (Quality Biological, Gaithersburg, MD, cat. 114-055-101), at 800-fold the tested concentration and stored at -70 degrees C prior to their use. All drugs and investigational agents were tested over a range starting from a high concentration at or near the clinical Cmax and decreasing in half-log increments. If the clinical Cmax for an agent had not been determined, the highest concentration tested was 10 microM, except for SN-38, which was tested at a high concentration of 1 microM.
Cell Culture. All cells were maintained in an incubator at 37 degrees C and 5% CO2 with 95% humidity. The PDC lines were cultured according to standard operating procedures established by the NCI PDMR (https://pdmr.cancer.gov). Table 3 of the manuscript, lists the cell lines along with the number of the three cell types plated to form the mct-spheroids and media for tumor cell growth. After thawing, all PDC lines, except 997537-175-T-J1-PDC and 415267-285-R-J2-PDC, were cultured in Matrigel-coated flasks prepared with a working solution of 1X Ham's F-12 nutrient mix, without supplementation (Thermo Fisher Scientific, cat. 11765054), 100 U/mL penicillin-streptomycin (Thermo Fisher Scientific, cat. 15140122), and 2.5% Matrigel (Corning Inc., Corning, NY, cat. 354248) for the first three passages. The two PDC lines 997537-175-T-J1-PDC and 415267-285-R-J2-PDC were cultured on uncoated flasks. The 857933-349-R-J2-PDC line was cultured in 6C/Colon 1B media containing advanced DMEM/F-12 (Thermo Fisher Scientific, cat. 12634028), 10 mM HEPES (Thermo Fisher Scientific, cat. 15630080), 1X GlutaMAX supplement (Thermo Fisher Scientific, cat. 35050061), 0.1 mg/mL primocin (InvivoGen, San Diego, CA, cat. ant-pm-2), 10% defined fetal bovine serum, heat inactivated (HyClone Laboratories Inc., Logan, UT, cat. SH30070.03HI), 50% L-WRN conditioned media (ATCC, cat. CRL-3276), 1.25 mM N-Acetyl-L-cysteine (Sigma-Aldrich, cat. A9165), 10 mM nicotinamide (Sigma-Aldrich, cat. N0636), 1X B-27 supplement (Thermo Fisher Scientific, cat. 17504044), 1X N-2 supplement (Thermo Fisher Scientific, cat. […]

[1] = second compound 0.0316 µM, first compound 0.0316 µM
[2] = second compound 0.0316 µM, first compound 0.1 µM
[3] = second compound 0.0316 µM, first compound 0.316 µM
[4] = second compound 0.0316 µM, first compound 1 µM
[5] = second compound 0.0316 µM, first compound 3.16 µM
[6] = second compound 0.0316 µM, first compound 10 µM
[7] = second compound 0.1 µM, first compound 0.0316 µM
[8] = second compound 0.1 µM, first compound 0.1 µM
[9] = second compound 0.1 µM, first compound 0.316 µM
[10] = second compound 0.1 µM, first compound 1 µM
[11] = second compound 0.1 µM, first compound 3.16 µM
[12] = second compound 0.1 µM, first compound 10 µM
[13] = second compound 0.316 µM, first compound 0.0316 µM
[14] = second compound 0.316 µM, first compound 0.1 µM
[15] = second compound 0.316 µM, first compound 0.316 µM
[16] = second compound 0.316 µM, first compound 1 µM
[17] = second compound 0.316 µM, first compound 3.16 µM
[18] = second compound 0.316 µM, first compound 10 µM
[19] = second compound 1 µM, first compound 0.0316 µM
[20] = second compound 1 µM, first compound 0.1 µM
[21] = second compound 1 µM, first compound 0.316 µM
[22] = second compound 1 µM, first compound 1 µM
[23] = second compound 1 µM, first compound 3.16 µM
[24] = second compound 1 µM, first compound 10 µM
[25] = second compound 3.16 µM, first compound 0.0316 µM
[26] = second compound 3.16 µM, first compound 0.1 µM
[27] = second compound 3.16 µM, first compound 0.316 µM
[28] = second compound 3.16 µM, first compound 1 µM
[29] = second compound 3.16 µM, first compound 3.16 µM
[30] = second compound 3.16 µM, first compound 10 µM
[31] = second compound 10 µM, first compound 0.0316 µM
[32] = second compound 10 µM, first compound 0.1 µM
[33] = second compound 10 µM, first compound 0.316 µM
[34] = second compound 10 µM, first compound 1 µM
[35] = second compound 10 µM, first compound 3.16 µM
[36] = second compound 10 µM, first compound 10 µM
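Further: spheroids exposed to compounds for seven days before readout.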

CC(C)n1c(=O)n(C)c2cnc3cc(F)c(-c4ccc(OCCCN5CCCCC5)nc4)cc3c21 + COC1C(OC(N)=O)C(O)C(Oc2ccc3c(O)c(NC(=O)c4ccc(O)c(CC=C(C)C)c4)c(=O)oc3c2C)OC1(C)C
> 10 µM: IC50 (second compound 0.0316 µM) | IC50 (second compound 0.1 µM) | IC50 (second compound 0.316 µM) | IC50 (second compound 1 µM) | IC50 (second compound 3.16 µM) | IC50 (second compound 10 µM)
inactive: viability, T/C [1] 102% | viability, T/C [2] 108% | viability, T/C [3] 97.3% | viability, T/C [4] 105% | viability, T/C [5] 109% | viability, T/C [6] 111% | viability, T/C [7] 113% | viability, T/C [8] 118% | viability, T/C [9] 100% | viability, T/C [10] 95% | viability, T/C [11] 121% | viability, T/C [12] 100% | viability, T/C [13] 87.2% | viability, T/C [14] 120% | viability, T/C [15] 93.1% | viability, T/C [16] 85.1% | viability, T/C [17] 84.1% | viability, T/C [18] 105% | viability, T/C [19] 74.4% | viability, T/C [20] 110% | viability, T/C [21] 103% | viability, T/C [22] 98.3% | viability, T/C [23] 87.8% | viability, T/C [24] 122% | viability, T/C [25] 110% | viability, T/C [26] 112% | viability, T/C [27] 111% | viability, T/C [28] 89% | viability, T/C [29] 122% | viability, T/C [30] 123% | viability, T/C [31] 89.6% | viability, T/C [32] 115% | viability, T/C [33] 106% | viability, T/C [34] 104% | viability, T/C [35] 85.7% | viability, T/C [36] 114%

CC1COCCN1c1cc(C2(O)CC3CCC(C2)O3)c2cnn(-c3ccn[nH]3)c2n1 (centres undefined) + COC1C(OC(N)=O)C(O)C(Oc2ccc3c(O)c(NC(=O)c4ccc(O)c(CC=C(C)C)c4)c(=O)oc3c2C)OC1(C)C
0.249 µM: IC50 (second compound 0.0316 µM)
0.339 µM: IC50 (second compound 10 µM)
0.171 µM: IC50 (second compound 3.16 µM)
0.285 µM: IC50 (second compound 1 µM)
0.279 µM: IC50 (second compound 0.1 µM)
0.334 µM: IC50 (second compound 0.316 µM)
inactive: viability, T/C [1] 76.3% | viability, T/C [2] 61.5% | viability, T/C [3] 48.2% | viability, T/C [4] 39% | viability, T/C [5] 40.7% | viability, T/C [6] 49.7% | viability, T/C [7] 111% | viability, T/C [8] 57.7% | viability, T/C [9] 59.4% | viability, T/C [10] 37.7% | viability, T/C [11] 40.2% | viability, T/C [12] 47% | viability, T/C [13] 63.3% | viability, T/C [14] 68.1% | viability, T/C [15] 50.3% | viability, T/C [16] 41% | viability, T/C [17] 43.1% | viability, T/C [18] 46.7% | viability, T/C [19] 94.3% | viability, T/C [20] 58.1% | viability, T/C [21] 50.4% | viability, T/C [22] 41.2% | viability, T/C [23] 49.9% | viability, T/C [24] 51.4% | viability, T/C [25] 75.2% | viability, T/C [26] 54.5% | viability, T/C [27] 45.5% | viability, T/C [28] 38.1% | viability, T/C [29] 43.3% | viability, T/C [30] 50% | viability, T/C [31] 71.5% | viability, T/C [32] 63.6% | viability, T/C [33] 52.8% | viability, T/C [34] 36.7% | viability, T/C [35] 45.6% | viability, T/C [36] 47.9%
